The record followed here is ChEMBL document CHEMBL1138923, “Structure-activity relationships of 1,5-biaryl pyrroles as EP1 receptor antagonists” (Bioorg Med Chem Lett, 2006).

The target of data set [1] is T1, Prostaglandin E2 receptor EP1 subtype (Homo sapiens, UniProt P34995).
T1 sequence (P34995 whole entry): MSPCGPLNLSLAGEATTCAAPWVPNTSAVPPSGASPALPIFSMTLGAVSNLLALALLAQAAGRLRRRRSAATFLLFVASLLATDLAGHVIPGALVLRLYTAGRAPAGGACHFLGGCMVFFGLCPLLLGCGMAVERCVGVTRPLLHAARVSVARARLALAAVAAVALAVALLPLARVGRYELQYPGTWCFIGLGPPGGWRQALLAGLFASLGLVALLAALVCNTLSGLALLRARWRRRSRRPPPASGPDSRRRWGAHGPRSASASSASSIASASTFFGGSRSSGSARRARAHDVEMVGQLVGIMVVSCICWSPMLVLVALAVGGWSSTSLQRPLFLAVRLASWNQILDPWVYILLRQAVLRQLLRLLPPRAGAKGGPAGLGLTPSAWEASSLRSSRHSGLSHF
In words: Inhibition of [3H]PGE2 binding to EP1 receptor expressed in CHO cells. Format: cell-based.

Another data set addresses Cytochrome P450 (family) (Homo sapiens, UniProt P04798+P05177+P05181+P08684+P10632+P10635+P11509+P11712+P13584+P20813+P20815+P20853+P24462+P24903+P33260+P33261+P51589+P78329+P98187+Q02928+Q08477+Q16678+Q16696+Q5TCH4+Q6VVX0+Q7Z449+Q8TAV3+Q96SQ9+Q9HB55). In words: Inhibition of CYP450. Format: ADME.
A further data set concerns the target Cytochrome P450 2C9 (Homo sapiens, UniProt P11712). Put plainly: Inhibition of CYP450 2C9. Format: ADME.
The nature of data set [2]: Oral bioavailability in rat at 3 mg/kg, po. Format: ADME, organism-based. Particulars: in vivo.
The species named for another data set is Rattus norvegicus. In words: Decrease in weight bearing of left hind paw in rat FCA model of inflammatory pain 1 hr post dose. Format: functional.
Data set [3] is described as follows: Clearance in rat at 1 mg/kg, iv. More on the design: dose 1 mg/kg, route intravenous. The settings on record: in vivo. Format: ADME, organism-based.
Data set [4] in a line: Volume of distribution in rat at 1 mg/kg, iv. Format: ADME, organism-based. Also on record: dose 1 mg/kg, route intravenous. Particulars: in vivo, read-out: Vss.
Data set [5] is described as follows: Half life in rat at 1 mg/kg, iv. Format: ADME, organism-based. Also on record: dose 1 mg/kg, route intravenous. The settings on record: in vivo.

Each structure is given as a SMILES string.

Chain of Cytochrome P450 2C9 (P11712 whole entry): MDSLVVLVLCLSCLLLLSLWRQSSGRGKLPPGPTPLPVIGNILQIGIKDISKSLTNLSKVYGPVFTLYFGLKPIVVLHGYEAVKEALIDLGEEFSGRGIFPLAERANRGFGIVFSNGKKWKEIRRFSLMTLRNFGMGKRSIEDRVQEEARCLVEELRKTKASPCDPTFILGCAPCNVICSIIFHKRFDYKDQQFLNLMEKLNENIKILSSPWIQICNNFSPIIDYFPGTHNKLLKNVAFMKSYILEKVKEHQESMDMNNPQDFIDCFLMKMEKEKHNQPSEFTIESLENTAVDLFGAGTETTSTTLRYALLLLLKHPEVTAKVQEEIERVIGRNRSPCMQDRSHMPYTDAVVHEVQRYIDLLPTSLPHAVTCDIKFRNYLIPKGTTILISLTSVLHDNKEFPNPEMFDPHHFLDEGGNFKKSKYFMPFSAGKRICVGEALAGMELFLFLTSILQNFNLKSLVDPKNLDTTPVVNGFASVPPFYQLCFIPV

For the compound `O=C(O)c1cccc(-n2c(-c3cc(Cl)ccc3OCc3ccc(F)cc3F)ccc2C(F)(F)F)c1`, the IC50 in data set [1] is 100 nM.
The same measure, in the same setting: to `Cc1ccc(-c2cc(Br)ccc2OCC2CCCC2)n1-c1cccc(C(=O)O)c1` belongs 15.8 nM.
Consider `Cc1ccc(-c2cc(Br)ccc2OCc2ccc(F)cc2)n1-c1cccc(C(=O)O)c1`, for which the figures for the IC50 (on Cytochrome P450 (family); against Cytochrome P450 2C9; in data set [1]) were ≥ 17000 nM, 3900 nM and 6.31 nM, respectively. For the same compound, the bioavailability in data set [2] amounted to 44%. The compound further registered a 50% effective dose (ED50) in the data set filed under Rattus norvegicus of 9.2 mg/kg. Further, in data set [3], the clearance turned out to be 42 mL/min/kg. Further, the Vd in data set [4] was found to be 0.7 L/kg.
`Cc1ccccc1COc1ccc(Br)cc1-c1ccc(C)n1-c1cccc(C(=O)O)c1`: in data set [1], the IC50 is 20 nM.
The compound `Cc1ccc(-c2cc(Br)ccc2OCc2ccc(F)cc2Cl)n1-c1cccc(C(=O)O)c1` showed an IC50 in data set [1] of 15.8 nM. The same compound registered a clearance in data set [3] of 48 mL/min/kg. Also, the Vd in data set [4] came out at 0.8 L/kg. Besides, the half-life in data set [5] is 18 min.
The compound `Cc1ccc(-c2cc(Br)ccc2OCc2c(F)cccc2C(F)(F)F)n1-c1cccc(C(=O)O)c1` showed an IC50 in data set [1] of 100 nM.
In data set [1], `Cc1ccc(-c2cc(Cl)ccc2OCc2ccc(F)cc2)n1-c1cccc(C(=O)O)c1` gave an IC50 of 6.31 nM. The clearance in data set [3] is 48 mL/min/kg. Also, the Vd in data set [4] came to 0.9 L/kg.
As for `Cc1ccc(-c2cc(Br)ccc2OCc2ccc(F)c(F)c2)n1-c1cccc(C(=O)O)c1`, the IC50 in data set [1] was 5.01 nM.
The same measure, in the same setting: to `Cc1ccc(-c2cc(Br)ccc2OCc2cc(F)ccc2F)n1-c1cccc(C(=O)O)c1` belongs 7.94 nM; to `O=C(O)c1cccc(-n2c(-c3cc(Cl)ccc3OCc3ccc(F)cc3)ccc2C(F)(F)F)c1`, 200 nM; to `Cc1ccc(COc2ccc(Br)cc2-c2ccc(C)n2-c2cccc(C(=O)O)c2)cc1`, 2.51 nM.
`Cc1cc(COc2ccc(Br)cc2-c2ccc(C)n2-c2cccc(C(=O)O)c2)no1` showed an IC50 in data set [1] of 25.1 nM.
Still for that read-out and setting: then `Cc1c(Cl)cc(-c2cc(Cl)ccc2OCc2ccccc2)n1-c1cccc(C(=O)O)c1`, with > 1000 nM; and `Cc1ccc(-c2cc(Cl)ccc2OCC(C)C)n1-c1cccc(C(=O)O)c1`, with 5.01 nM.
Same read-out and setting: to `Cc1ccc(-c2cc(Br)ccc2OCc2cccc(Cl)c2)n1-c1cccc(C(=O)O)c1` belongs 10 nM; to `Cc1ccc(-c2cc(Br)ccc2OCc2c(F)cc(F)cc2F)n1-c1cccc(C(=O)O)c1`, 1.58 nM.
Regarding `Cc1c(-c2ccccc2)cc(-c2cc(Cl)ccc2OCc2ccccc2)n1-c1cccc(C(=O)O)c1`, the IC50 in data set [1] is > 1000 nM.
Same read-out and setting: then `Cc1ccc(-c2cc(Br)ccc2OCC2CCCCC2)n1-c1cccc(C(=O)O)c1`, with 39.8 nM; and `Cc1ccc(-c2cc(Br)ccc2OCc2cccc(OC(F)F)c2)n1-c1cccc(C(=O)O)c1`, with 79.4 nM.
Regarding `Cc1ccc(-c2cc(Br)ccc2OCc2ccc(Cl)cc2Cl)n1-c1cccc(C(=O)O)c1`, the IC50 in data set [1] was 5.01 nM.
For the compound `Cc1ccc(-c2cc(Cl)ccc2OCc2ccc(F)cc2F)n1-c1cccc(C(=O)O)c1`, the IC50 in data set [1] is 3.98 nM. Moreover, the clearance in data set [3] came out at 62 mL/min/kg. The Vd in data set [4] worked out at 0.9 L/kg.
`Cc1ccc(-c2cc(Br)ccc2OCc2c(F)cccc2F)n1-c1cccc(C(=O)O)c1`: the IC50 in data set [1] is 1 nM.
With `Cc1ccc(-c2cc(Br)ccc2OCc2ccc(Cl)cc2)n1-c1cccc(C(=O)O)c1`, the IC50 in data set [1] was 10 nM. The same compound showed a clearance in data set [3] of 51 mL/min/kg. Further, the Vd in data set [4] came to 0.8 L/kg. Also, in data set [5], the half-life is 12 min.
Take `Cc1ccc(-c2ccccc2OCc2ccccc2)n1-c1cccc(C(=O)O)c1`: in data set [1], the IC50 was 20 nM.
Same read-out and setting: then `Cc1ccc(-c2cc(Br)ccc2OCc2ccc(C(F)(F)F)cc2F)n1-c1cccc(C(=O)O)c1`, with 12.6 nM; and `Cc1ccc(-c2cc(Br)ccc2OCc2ccccc2F)n1-c1cccc(C(=O)O)c1`, with 3.16 nM; and `Cc1noc(C)c1COc1ccc(Br)cc1-c1ccc(C)n1-c1cccc(C(=O)O)c1`, with 200 nM.
Turning to `Cc1ccc(-c2cc(Cl)ccc2OCC2CCOCC2)n1-c1cccc(C(=O)O)c1`, the IC50 in data set [1] was 39.8 nM.
On the same count and under the same terms, to `Cc1ccc(-c2cc(C(F)(F)F)ccc2OCc2ccccc2)n1-c1cccc(C(=O)O)c1` belongs 5.01 nM; to `Cc1ccc(-c2cc(S(C)(=O)=O)ccc2OCc2ccccc2)n1-c1cccc(C(=O)O)c1`, 25.1 nM.
On the same count and under the same terms, then `Cc1ccc(-c2cc(Br)ccc2OCc2cccc(C(F)(F)F)c2)n1-c1cccc(C(=O)O)c1`, with 251 nM; and `COc1ccc(COc2ccc(Br)cc2-c2ccc(C)n2-c2cccc(C(=O)O)c2)cc1`, with 50.1 nM; and `COc1cccc(COc2ccc(Br)cc2-c2ccc(C)n2-c2cccc(C(=O)O)c2)c1`, with 50.1 nM.
With `Cc1c(Br)cc(-c2cc(Cl)ccc2OCc2ccccc2)n1-c1cccc(C(=O)O)c1`, the IC50 in data set [1] is 794 nM. In data set [3], this compound had a clearance of 54 mL/min/kg. In addition, the Vd in data set [4] stood at 1 L/kg. Besides, in data set [5], the half-life is 18 min.
For the compound `Cc1ccc(-c2cc(-c3ccccc3)ccc2OCc2ccccc2)n1-c1cccc(C(=O)O)c1`, the IC50 in data set [1] was 398 nM.
In data set [1], `O=C(O)c1cccc(-n2c(Cl)ccc2-c2cc(Cl)ccc2OCc2ccccc2)c1` had an IC50 of 25.1 nM.
Compound `Cc1ccc(-c2cc(Cl)ccc2OCC2CCCCC2)n1-c1cccc(C(=O)O)c1` showed an IC50 in data set [1] of 126 nM. This compound gave a clearance in data set [3] of 28 mL/min/kg. In addition, the Vd in data set [4] was 0.5 L/kg. The compound further showed a half-life in data set [5] of 24 min.
Regarding `Cc1ccc(-c2cc(Br)ccc2OCc2ccc(OC(F)(F)F)cc2)n1-c1cccc(C(=O)O)c1`, in data set [1], the IC50 was 15.8 nM.
In data set [1], `Cc1ccc(-c2cc(Cl)ccc2OCC2CCCO2)n1-c1cccc(C(=O)O)c1` (configuration not stated) showed an IC50 of 39.8 nM.
The same measure, in the same setting: to `Cc1ccc(-c2cc(Br)ccc2OCC(C)C)n1-c1cccc(C(=O)O)c1` belongs 5.01 nM; to `Cc1ccc(-c2cc(C(F)(F)F)ccc2OCC2CCCCC2)n1-c1cccc(C(=O)O)c1`, 31.6 nM.
On the same count and under the same terms, then `Cc1ccc(-c2cc(Br)ccc2OCc2ccc(Cl)c(Cl)c2)n1-c1cccc(C(=O)O)c1`, with 100 nM.
With `Cc1ccc(-c2cc(Br)ccc2OCc2cccc(F)c2F)n1-c1cccc(C(=O)O)c1`, the IC50 in data set [1] was 6.31 nM.
Still for that read-out and setting: then `CCc1ccc(-c2cc(Cl)ccc2OCc2ccccc2)n1-c1cccc(C(=O)O)c1`, with 100 nM; and `CCc1ccc(-c2cc(Br)ccc2OCc2ccccc2)n1-c1cccc(C(=O)O)c1`, with 79.4 nM; and `Cc1ccc(-c2cc(-c3ccsc3)ccc2OCc2ccccc2)n1-c1cccc(C(=O)O)c1`, with 631 nM.
The compound `Cc1ccc(-c2cc(Br)ccc2OCc2ccc(C(F)(F)F)cc2)n1-c1cccc(C(=O)O)c1` showed an IC50 in data set [1] of 39.8 nM.
On the same count and under the same terms, then `Cc1ccc(-c2cc(Br)ccc2OCc2c(F)cccc2Cl)n1-c1cccc(C(=O)O)c1`, with 12.6 nM; and `Cc1ccc(-c2cc(Br)ccc2OCc2ccccc2Cl)n1-c1cccc(C(=O)O)c1`, with 12.6 nM; and `Cc1ccc(-c2cc(Cl)ccc2OCC2CCCC2)n1-c1cccc(C(=O)O)c1`, with 25.1 nM.
